Results on 17 molecules are retold here after PubChem BioAssay AID248 (DTP/NCI, 2004).

For the test, the system named is L1210 leukemia ip in BDF1 mice, survival T/C. The test is described as follows: NCI In Vivo Anticancer Drug Screen. Data for tumor model L1210 Leukemia (intraperitoneal) in B6D2F1 (BDF1) mice. Particulars: endpoint: mean survival time, higher = longer survival. In a few lines:
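Mice bearing the transplanted tumor received compound or vehicle. Survival of the treated group was divided by that of the vehicle-treated control group to give the ratio.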

[1] abbreviates: dose: 100.0 mg/kg/injection, schedule: Q01DX001 (ip), vehicle: carboxymethylcellulose (CMC).
Setting [2] is: dose: 200.0 mg/kg/injection, schedule: Q01DX001 (ip), vehicle: carboxymethylcellulose (CMC).
The mark [3] stands for this setting: dose: 400.0 mg/kg/injection, schedule: Q01DX001 (ip), vehicle: carboxymethylcellulose (CMC).
[4] abbreviates: dose: 100.0 mg/kg/injection, schedule: Q01DX009 (ip), vehicle: Klucel (hydroxypropylcellulose) (HPC).
The mark [5] stands for this setting: dose: 100.0 mg/kg/injection, schedule: Q04DX003 (ip), vehicle: Klucel (hydroxypropylcellulose) (HPC).
[6] abbreviates: dose: 200.0 mg/kg/injection, schedule: Q01DX009 (ip), vehicle: Klucel (hydroxypropylcellulose) (HPC).
The mark [7] stands for this setting: dose: 200.0 mg/kg/injection, schedule: Q04DX003 (ip), vehicle: Klucel (hydroxypropylcellulose) (HPC).
Setting [8] is: dose: 400.0 mg/kg/injection, schedule: Q01DX009 (ip), vehicle: Klucel (hydroxypropylcellulose) (HPC).
Setting [9] is: dose: 400.0 mg/kg/injection, schedule: Q04DX003 (ip), vehicle: Klucel (hydroxypropylcellulose) (HPC).
Setting [10] is: dose: 12.5 mg/kg/injection, schedule: Q01DX009 (ip), vehicle: saline.
[11] abbreviates: dose: 100.0 mg/kg/injection, schedule: Q01DX001 (ip), vehicle: saline.
[12] abbreviates: dose: 200.0 mg/kg/injection, schedule: Q01DX001 (ip), vehicle: saline.
Where [13] appears, read: dose: 400.0 mg/kg/injection, schedule: Q01DX001 (ip), vehicle: saline.

Values joined by “and” are separate entries in the source; they are usually repeats but may differ in a detail not shown here. Identical values can stand only once. Toxic doses and inconclusive results are not listed.

On to `O=C1C=CC(=O)N1C12CC3CC(CC(C3)C1)C2`, for which the T/C reads like this: (dose: 12.5 mg/kg/injection, schedule: Q04DX002 (ip), vehicle: Klucel (hydroxypropylcellulose) (HPC)) 98 % of control; (dose: 25.0 mg/kg/injection, schedule: Q04DX002 (ip), vehicle: Klucel (hydroxypropylcellulose) (HPC)) 105 % of control; (dose: 50.0 mg/kg/injection, schedule: Q04DX002 (ip), vehicle: Klucel (hydroxypropylcellulose) (HPC)) 94 % of control.

As for `O=[N+]([O-])c1ccc(/C=C\c2ccncc2)cc1`, the T/C is, setting by setting: under setting [1], 101 % of control; (dose: 100.0 mg/kg/injection, schedule: Q01DX009 (ip), vehicle: carboxymethylcellulose (CMC)) 100 % of control; (dose: 100.0 mg/kg/injection, schedule: Q04DX002 (ip), vehicle: carboxymethylcellulose (CMC)) 103 % of control and 108 % of control; (dose: 100.0 mg/kg/injection, schedule: Q04DX003 (ip), vehicle: carboxymethylcellulose (CMC)) 100 % of control; under setting [2], 105 % of control; (dose: 200.0 mg/kg/injection, schedule: Q01DX009 (ip), vehicle: carboxymethylcellulose (CMC)) 98 % of control. Besides, the T/C was 100 % of control (dose: 200.0 mg/kg/injection, schedule: Q04DX002 (ip), vehicle: carboxymethylcellulose (CMC)); 115 % of control (dose: 200.0 mg/kg/injection, schedule: Q04DX003 (ip), vehicle: carboxymethylcellulose (CMC)); 95 % of control under setting [3]; 100 % of control (dose: 400.0 mg/kg/injection, schedule: Q04DX002 (ip), vehicle: carboxymethylcellulose (CMC)); 104 % of control (dose: 400.0 mg/kg/injection, schedule: Q04DX003 (ip), vehicle: carboxymethylcellulose (CMC)).

For the molecule `O=[N+]([O-])c1ccc(C2OC2c2ccccc2)cc1` (stereo not given), the T/C under setting [4] is 101 % of control; the T/C under setting [5] was 100 % of control; the T/C under setting [6] was 95 % of control; the T/C under setting [7] was 95 % of control; the T/C under setting [8] was 95 % of control; the T/C under setting [9] is 97 % of control.

Take `Nc1cc(N)cc([N+](=O)[O-])c1`: the T/C (dose: 3.12 mg/kg/injection, schedule: Q01DX009 (ip), vehicle: saline) is 103 % of control; the T/C (dose: 6.25 mg/kg/injection, schedule: Q01DX009 (ip), vehicle: saline) was 103 % of control; the T/C (dose: 6.25 mg/kg/injection, schedule: Q04DX003 (ip), vehicle: saline) was 101 % of control; the T/C under setting [10] is 95 % of control; the T/C (dose: 12.5 mg/kg/injection, schedule: Q04DX003 (ip), vehicle: saline) was 101 % of control; the T/C (dose: 25.0 mg/kg/injection, schedule: Q04DX003 (ip), vehicle: saline) is 101 % of control. In addition, the T/C was 113 % of control (dose: 50.0 mg/kg/injection, schedule: Q01DX001 (ip), vehicle: carboxymethylcellulose (CMC)); 109 % of control under setting [1]; 107 % of control under setting [2]; 109 % of control under setting [3].

In the case of `CCCCC/C=C/c1c(C)[nH]c2ccccc2c1=O`, the T/C under setting [4] is 118 % of control; the T/C under setting [5] was 100 % of control; the T/C under setting [6] was 94 % of control; the T/C under setting [7] is 96 % of control; the T/C under setting [8] is 99 % of control; the T/C under setting [9] was 89 % of control.

On to `C=C(NC(=O)COc1ccccc1)C(=O)O`, for which the T/C reads like this: (dose: 100.0 mg/kg/injection, schedule: Q01DX009 (ip), vehicle: saline) 103 % of control; (dose: 100.0 mg/kg/injection, schedule: Q04DX003 (ip), vehicle: saline) 116 % of control; (dose: 200.0 mg/kg/injection, schedule: Q01DX009 (ip), vehicle: saline) 90 % of control; (dose: 200.0 mg/kg/injection, schedule: Q04DX003 (ip), vehicle: saline) 97 % of control; (dose: 400.0 mg/kg/injection, schedule: Q04DX003 (ip), vehicle: saline) 100 % of control.

`COc1ccc(OC)c(/C=C/[N+](=O)[O-])c1`: the T/C (dose: 6.25 mg/kg/injection, schedule: Q01DX009 (ip), vehicle: Klucel (hydroxypropylcellulose) (HPC)) is 105 % of control; the T/C (dose: 12.5 mg/kg/injection, schedule: Q01DX009 (ip), vehicle: Klucel (hydroxypropylcellulose) (HPC)) was 102 % of control; the T/C (dose: 25.0 mg/kg/injection, schedule: Q01DX009 (ip), vehicle: Klucel (hydroxypropylcellulose) (HPC)) is 107 % of control; the T/C (dose: 50.0 mg/kg/injection, schedule: Q01DX009 (ip), vehicle: Klucel (hydroxypropylcellulose) (HPC)) is 105 % of control; the T/C (dose: 100.0 mg/kg/injection, schedule: Q04DX003 (ip), vehicle: gum acacia) was 97 % of control.

For `CCC1([N+](=O)[O-])COP(=O)(OC(=O)c2ccc([N+](=O)[O-])cc2)OC1` (stereo not given), the T/C is, setting by setting: under setting [11], 91 % of control; under setting [12], 91 % of control; under setting [13], 92 % of control.

For `COC(=O)C1OC1c1ccc2c(c1)OCO2` (stereo not given), the T/C was 97 % of control and 98 % of control (dose: 88.8 mg/kg/injection, schedule: Q01DX001 (ip), vehicle: carboxymethylcellulose (CMC)); 95 % of control and 106 % of control (dose: 133.4 mg/kg/injection, schedule: Q01DX001 (ip), vehicle: carboxymethylcellulose (CMC)); 95 % of control and 97 % of control under setting [2]; 93 % of control and 101 % of control (dose: 300.0 mg/kg/injection, schedule: Q01DX001 (ip), vehicle: carboxymethylcellulose (CMC)).

In the case of `CCOC(=O)c1cn2ccc3ccccc3c2n1`, the T/C was 103 % of control (dose: 100.0 mg/kg/injection, schedule: Q01DX001 (ip), vehicle: Klucel (hydroxypropylcellulose) (HPC)); 98 % of control (dose: 200.0 mg/kg/injection, schedule: Q01DX001 (ip), vehicle: Klucel (hydroxypropylcellulose) (HPC)); 98 % of control (dose: 400.0 mg/kg/injection, schedule: Q01DX001 (ip), vehicle: Klucel (hydroxypropylcellulose) (HPC)).

Take `COc1cc(OC)c(NC(=O)C2CC2)cc1Cl`: the T/C by setting is: under setting [4], 110 % of control; under setting [6], 104 % of control; under setting [8], 110 % of control.

Consider `Cc1ccc(C(SCC(N)C(=O)O)(c2ccccc2)c2ccc(C)cc2)cc1` (stereo not given), for which the T/C was 124 % of control (dose: 6.25 mg/kg/injection, schedule: Q01DX009 (ip), vehicle: other); 152 % of control (dose: 12.5 mg/kg/injection, schedule: Q01DX009 (ip), vehicle: other); 156 % of control and 197 % of control under setting [10]; 164 % of control (dose: 25.0 mg/kg/injection, schedule: Q01DX009 (ip), vehicle: other); 179 % of control and 195 % of control (dose: 25.0 mg/kg/injection, schedule: Q01DX009 (ip), vehicle: saline); 113 % of control and 88 % of control (dose: 50.0 mg/kg/injection, schedule: Q01DX009 (ip), vehicle: saline).

On to `Cc1nc2nc(=S)[nH]c(N)c2nc1C`, for which the T/C (dose: 16.0 mg/kg/injection, schedule: Q01DX Z (ip), vehicle: methylcellulose (MC)) was 86 % of control; the T/C (dose: 31.0 mg/kg/injection, schedule: Q01DX Z (ip), vehicle: methylcellulose (MC)) is 91 % of control; the T/C (dose: 62.0 mg/kg/injection, schedule: Q01DX Z (ip), vehicle: methylcellulose (MC)) is 88 % of control; the T/C (dose: 125.0 mg/kg/injection, schedule: Q01DX Z (ip), vehicle: methylcellulose (MC)) was 95 % of control.

For the molecule `O=c1cc(Cc2ccc([N+](=O)[O-])cc2)[nH]c(=O)[nH]1`, the T/C was 101 % of control (dose: 50.0 mg/kg/injection, schedule: Q01DX001 (ip), vehicle: saline); 107 % of control under setting [11]; 115 % of control under setting [12]; 115 % of control under setting [13].

For the molecule `O=[N+]([O-])c1cc(Cl)c(Cl)cc1N1CCCC1`, the T/C by setting is: under setting [5], 93 % of control; under setting [7], 88 % of control; under setting [9], 101 % of control.

Take `CC[N+](C)(CC)CCN1C(=O)c2ccccc2S1(=O)=O`: the T/C (dose: 44.0 mg/kg/injection, schedule: Q01DX Z (ip), vehicle: saline) is 108 % of control and the T/C (dose: 66.0 mg/kg/injection, schedule: Q01DX Z (ip), vehicle: saline) was 98 % of control.

For the molecule `COc1cccc(OC)c1OC(=O)Nc1cccc(SC)c1`, the T/C (dose: 200.0 mg/kg/injection, schedule: Q01DX009 (ip), vehicle: saline with Tween-80) is 91 % of control and the T/C (dose: 400.0 mg/kg/injection, schedule: Q01DX009 (ip), vehicle: saline with Tween-80) was 95 % of control.
